In paper PMC3671111, “A Phase I, open-label, randomized, crossover study in three parallel groups to evaluate the effect of Rifampicin, Ketoconazole, and Omeprazole on the pharmacokinetics of THC/CBD oromucosal spray in healthy volunteers” (SpringerPlus, 2013):
Marks after values point to notes of the source that are not given here.

Columns and labels:
[1] = Phase I drug-drug interaction PK, Group 2: THC/CBD spray alone or with ketoconazole, plasma by GC-MS; conditions: for AUC(0-inf) / AUC(0-t) / Cmax / Kel / t½ / Tmax: plasma; for AUC(0-inf) / AUC(0-t) / Cmax / Kel / t½: mean (SD); for Tmax: median (range)
Experimental: (§1) Subjects received rifampicin on Days 1-9. […] Subjects received ketoconazole on Days 1-4.
(§2) Blood samples were collected at specified times and stored on ice (except rifampicin PK samples which were stored in iced water) prior to processing and storage. Plasma samples were separated by centrifugation (approximately 2500 rpm × 15 minutes at 4°C). Samples were stored in 4 mL amber glass screw top glass vials with PTFE lined screw caps labelled with Guys Drug Research (Quintiles Limited) labels. The aliquots were stored in clearly labelled containers in a freezer set at or below -20°C, until shipped for assay. Samples were shipped on dry ice at the appropriate time-points.
(§3) The assay validation was undertaken by Advanced Bioanalytical Service Laboratories (London, UK), who developed the technique after reviewing the literature, which was based on the methodology adopted by three different groups (Foltz et al. [1983]; Goodall & Basteyns [1995]; Kemp et al. [1995]), and designed with reference to FDA guidelines for industry (FDA Guidance for Industry [2012]). The method utilised protein precipitation, solvent extraction and derivatisation for the sample preparation and then sample analysis by capillary gas chromatography and detection by a mass spectrometer (GC-MS). The validation procedure investigated the calibration model with the best regression fit over the concentration range 0.1 - 100 ng/mL for CBD, THC and 11-OH-THC, as well as precision and accuracy of the method, stability, carry-over, and specificity.
(§4) Human plasma from healthy volunteers was used to prepare the standards and quality control (QC) samples, with analytes extracted using hexane/ethyl acetate (7:1 ratio), derivatised with N,O-Bis(trimethylsilyl)trifluoroacetamide. Analytic grade THC (Sigma, UK), CBD (Sigma, UK) and 11-OH-THC (Radian International and Cerillant, UK) were obtained, and three sets of CBD, THC and 11-OH-THC were used to support the study. Deuterated THC-d3 (Sigma, UK) was used as the internal standard. The GC-MS equipment was a Hewlett Packard 6890 Gas Chromatograph attached to a Hewlett Packard 5973 Mass Selective Detector. Data handling was carried out using an MS Chemstation System and the peak area ratio of the analytes to the internal standard was calculated in Excel (2000). The concentrations were calculated from the ratio data using least squares ln(y) on ln(x) regression performed in Excel (2000), and were then checked manually. Regression analysis was undertaken to find the regression model that best described the calibration data (for details, see ([Miller & Miller 1992])).
(§5) A 0.5 mL aliquot of test sample, QC or blank plasma was placed into a test tube. The blank plasma was spiked with 50 μL of the appropriate standard solution to produce the calibration standards. 50 μL of the internal standard was added to each test tube. The samples were then diluted by the addition of 500 μL of 0.1% (w/v) ascorbic acid and the protein precipitated by the addition of 1.0 mL of acetonitrile. The proteins were removed by centrifugation and the supernatant concentrated to 1 mL using nitrogen at 50 °C. The samples were then basified by the addition of 300 μL of 5M sodium hydroxide and the analytes extracted by the addition of 2.0 mL of 7:1 hexane:ethyl acetate. After mixing for 16 minutes the tubes were centrifuged and the top layer transferred into clean 3 dram vials. The solvent was removed using nitrogen at 70 °C and the dried extract resuspended in 100 μL of BSTFA and transferred to microvials, capped and placed at 70 °C for 30 minutes to derivatise the analytes. The microvials were then cooled and loaded onto the autosampler tray for analysis where 1 μL was injected onto the GC-MS system.

[2] = Phase I drug-drug interaction PK, Group 1: THC/CBD spray alone or with rifampicin, plasma by GC-MS; conditions: for AUC(0-inf) / AUC(0-t) / Cmax / Kel / t½ / Tmax: n = 12, plasma; for AUC(0-inf) / AUC(0-t) / Cmax / Kel / t½: mean (SD); for Tmax: median (range)
Experimental: as §1, §2, §3, §4, §5

[3] = Phase I drug-drug interaction PK, Group 3: THC/CBD spray alone or with omeprazole, plasma by GC-MS; conditions: for AUC(0-inf) / AUC(0-t) / Cmax / Kel / t½ / Tmax: n = 12, plasma; for AUC(0-inf) / AUC(0-t) / Cmax / Kel / t½: mean (SD); for Tmax: median (range); for Cmax and AUC % Co-efficient of Variation (CV%) range: inter-subject variability
Experimental: as §1, §2, §3, §4, §5

[4] = Ketoconazole and THC/CBD spray vs THC/CBD spray alone, no-interaction range 0.80 to 1.25
[5] = THC/CBD spray 4 sprays and ketoconazole 400 mg at end of 5-day dosing period, n = 11
[6] = THC/CBD spray alone, single dose 4 sprays (10.8/10 mg), ketoconazole group, n = 12
[7] = THC/CBD spray co-administered with ketoconazole vs alone
[8] = Rifampicin and THC/CBD spray vs THC/CBD spray alone, no-interaction range 0.80 to 1.25
[9] = THC/CBD spray 4 sprays and rifampicin 600 mg after repeated daily dosing
[10] = THC/CBD spray alone, single dose 4 sprays (10.8/10 mg), rifampicin group
[11] = THC/CBD spray co-administered with rifampicin vs alone
[12] = Omeprazole and THC/CBD spray vs THC/CBD spray alone, no-interaction range 0.80 to 1.25
[13] = THC/CBD spray 4 sprays and omeprazole 40 mg at end of 6-day dosing period
[14] = THC/CBD spray alone, single dose 4 sprays (10.8/10 mg), omeprazole group
[15] = THC/CBD spray co-administered with omeprazole vs alone

For 11-hydroxy-THC [11-OH-THC], the “Geometric mean ratio of AUC(0-inf), point estimate” value (from here on “Geometric mean ratio of AUC(0-inf)”) [1, 4] was 3.616, the “Geometric mean ratio of AUC(0-t), point estimate” value (shortened to “Geometric mean ratio of AUC(0-t)”) [1, 4] was 3.823 and the “Geometric mean ratio of Cmax, point estimate” value (from here on “Geometric mean ratio of Cmax”) [1, 4] was 3.074. For the same substance, the “AUC(0-inf)” value [1, 5] was 95.26 (48.93) h*ng/mL, the “AUC(0-t)” value [1, 5] was 84.34 (40.18) h*ng/mL and the Cmax [1, 5] was 10.92 (3.83) ng/mL. The Kel [1, 5] was 0.095 (0.016) h^-1, the t½ [1, 5] was 7.48 (1.39) h and the Tmax [1, 5] was 2.25 (1.50-4.13) h. For the same substance, the “AUC(0-inf)” value [1, 6] was 27.13 (13.34)^d h*ng/mL, the “AUC(0-t)” value [1, 6] was 21.78 (11.34) h*ng/mL and the Cmax [1, 6] was 3.59 (1.67) ng/mL. The Kel [1, 6] was 0.076 (0.014)^d h^-1, the t½ [1, 6] was 9.51 (2.18)^d h and the Tmax [1, 6] was 1.50 (1.00-6.00) h. For the same substance, the “% change in mean Tmax” value [1, 7] was “+50%”, the “% change in t1/2” value [1, 7] was -21% and the “Change in mean Cmax” value ([1]; THC/CBD spray with ketoconazole vs THC/CBD spray alone) was “+204%”. The “Substrate for the isoenzyme CYP3A4 (conclusion from ketoconazole interaction)” value ([1]; suggested by increased exposure with ketoconazole) was “substrates”, the “AUC, times higher after CYP3A4 inhibition by ketoconazole” value ([1]; vs THC/CBD spray alone) was 3.8 times and the “Cmax, times higher after CYP3A4 inhibition by ketoconazole” value ([1]; vs THC/CBD spray alone) was 3.1 times. The “Geometric mean ratio of AUC(0-inf)” value [2, 8] was 0.131, the “Geometric mean ratio of AUC(0-t)” value [2, 8] was 0.099 and the “Geometric mean ratio of Cmax” value [2, 8] was 0.140. The “AUC(0-inf)” value [2, 9] was 2.78 (0.68)^c h*ng/mL, the “AUC(0-t)” value [2, 9] was 1.84 (0.79) h*ng/mL and the Cmax [2, 9] was 0.45 (0.18) ng/mL. The Kel [2, 9] was 0.189 (0.074)^c h^-1, the t½ [2, 9] was 4.19 (1.62)^c h and the Tmax [2, 9] was 1.75 (1.50-2.57) h. The “AUC(0-inf)” value [2, 10] was 21.59 (8.76) h*ng/mL, the “AUC(0-t)” value [2, 10] was 18.61 (7.81) h*ng/mL and the Cmax [2, 10] was 3.38 (1.95) ng/mL. For the same substance, the Kel [2, 10] was 0.083 (0.042) h^-1, the t½ [2, 10] was 9.88 (3.89) h and the Tmax [2, 10] was 1.38 (0.50-6.02) h. For the same substance, the “% change in mean t1/2” value [2, 11] was -58%, the “% change in median Tmax” value [2, 11] was “+27%” and the “Change in mean Cmax” value ([2]; THC/CBD spray with rifampicin vs THC/CBD spray alone) was -87%. The “Geometric mean ratio of AUC(0-inf)” value [3, 12] was 0.869, the “Geometric mean ratio of AUC(0-t)” value [3, 12] was 0.869 and the “Geometric mean ratio of Cmax” value [3, 12] was 0.866. For the same substance, the “AUC(0-inf)” value [3, 13] was 19.80 (9.74) h*ng/mL, the “AUC(0-t)” value [3, 13] was 17.69 (9.05) h*ng/mL and the Cmax [3, 13] was 2.84 (1.40) ng/mL. For the same substance, the Kel [3, 13] was 0.095 (0.029) h^-1, the t½ [3, 13] was 7.98 (2.82) h and the Tmax [3, 13] was 1.52 (1.23-2.50) h. The “AUC(0-inf)” value [3, 14] was 24.17 (16.47) h*ng/mL, the “AUC(0-t)” value [3, 14] was 21.52 (14.76) h*ng/mL and the Cmax [3, 14] was 3.48 (2.27) ng/mL. The Kel [3, 14] was 0.114 (0.062) h^-1, the t½ [3, 14] was 7.30 (2.87) h and the Tmax [3, 14] was 2.00 (1.25-3.02) h. The “Plasma concentrations and PK parameters compared with THC/CBD spray alone” value ([3]; THC/CBD spray at end of 6-day omeprazole dosing) was “marginally lower”, the “% change in Tmax” value [3, 15] was -24% and the “% change in t1/2” value [3, 15] was “+9%”. For the same substance, the “Substrate for the isoenzyme CYP2C19 (conclusion from omeprazole interaction)” value ([3]; at the clinically relevant dose of THC/CBD spray investigated) was “not substrates”, the “Cmax and AUC % Co-efficient of Variation (CV%) range” value ([3]; THC/CBD spray alone, omeprazole group) was 48-69% and the “Cmax and AUC % Co-efficient of Variation (CV%) range” value ([3]; THC/CBD spray in combination with omeprazole) was 40-67%.
